The target of data set [1] is EGFR in Baf3-19del-T790M-C797S (Homo sapiens, UniProt P00533, C797S/DEL746-750/T790M). Kind of data set: EGFR PROTAC HTRF experiment (total EGFR degradation). Type of data set: cell-based. On the procedure: (§1) [table] Among them, B[…] -C797S (abbreviated as Baf3-DTC) is a stable Ba/F3 clone expressing exogenous EGFR gene bearing T790M, C797S and […] triple amino acid mutations, purchased from KYinno; Baf3-L858R-T790M - C797S (abbreviated as Baf3-LTC) is a stable Ba/F3 clone expressing exogenous EGFR gene bearing […], T790M, C797S triple mutations, purchased from KYinno. [table] [table] Dilutded Eu and d2 antibodies 2μl per well with detection buffer 20-fold. Then mixed the two antibody vials thoroughly. [table] Opened EnVision , locate the HTRF program, configured the board, and then read […]. The fitted curve, DC50 and Dmax of this compound could be generated using GraphPad Prism .

Data set [2] addresses EGFR in Baf3-L858R-T790M-C797S (Homo sapiens, UniProt P00533, C797S/L858R/T790M). The data set is described as above. Type of data set: cell-based. On the procedure:
as §1

Data set [3] can be described thus: Pharmacokinetic tests in male SD rats. The class given is in vivo. To be noted: oral gavage (po), 10 mg/kg, plasma; for AUC(0-inf) / AUC(0-t) / Cmax / MRT last / Tmax: rat. An outline of the steps: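 Fasted male SD rats (n=3) dosed 10 mg/kg by oral gavage as 1 mg/mL solution in 10% DMSO/90% 0.5% MC. Tail-vein EDTA plasma sampled 0.5–24 h, parent drug quantified by LC-MS/MS; AUC, T1/2, Cmax, Tmax by non-compartmental analysis.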

The mark [4] stands for this setting: Baf3-DTC, incubated 16 hours, HTRF total EGFR; read-out: Baf3-DTC DC50.
Where [5] appears, read: Baf3-DTC, incubated 16 hours, HTRF total EGFR; read-out: Baf3-DTC Dmax.
The mark [6] stands for this setting: Baf3-LTC, incubated 16 hours, HTRF total EGFR; read-out: Baf3-LTC DC50.
[7] abbreviates: Baf3-LTC, incubated 16 hours, HTRF total EGFR; read-out: Baf3-LTC Dmax.

Results on five compounds are retold here after patent publication EP4813979A1, “COMPOUND FOR EGFR PROTEIN DEGRADATION AND USE THEREOF” (TYK Medicines, Inc., priority 2023, dated 2025).

In general, DC50 refers to the midpoint of the concentration-degradation curve. As a reminder, the Dmax is the largest share of the target that was removed. By AUC(0-inf) is commonly meant total exposure, with the tail of the curve extrapolated. A low value points to low exposure. As a reminder, the AUC(0-t) is exposure summed from dosing to a finite time, without extrapolation to infinity. A low value points to less exposure. One may read the Cmax as the maximum level reached in the sampled fluid or tissue. What is called MRT last is the average time that molecules of a dose stay in the body. One may read the Tmax as the time from dosing to the highest level.

Read-outs that look alike come from different tables or passages of the source.

Sequence of EGFR in Baf3-19del-T790M-C797S (P00533 with tags, fused parts or gaps DEL746-750/T790M/C797S): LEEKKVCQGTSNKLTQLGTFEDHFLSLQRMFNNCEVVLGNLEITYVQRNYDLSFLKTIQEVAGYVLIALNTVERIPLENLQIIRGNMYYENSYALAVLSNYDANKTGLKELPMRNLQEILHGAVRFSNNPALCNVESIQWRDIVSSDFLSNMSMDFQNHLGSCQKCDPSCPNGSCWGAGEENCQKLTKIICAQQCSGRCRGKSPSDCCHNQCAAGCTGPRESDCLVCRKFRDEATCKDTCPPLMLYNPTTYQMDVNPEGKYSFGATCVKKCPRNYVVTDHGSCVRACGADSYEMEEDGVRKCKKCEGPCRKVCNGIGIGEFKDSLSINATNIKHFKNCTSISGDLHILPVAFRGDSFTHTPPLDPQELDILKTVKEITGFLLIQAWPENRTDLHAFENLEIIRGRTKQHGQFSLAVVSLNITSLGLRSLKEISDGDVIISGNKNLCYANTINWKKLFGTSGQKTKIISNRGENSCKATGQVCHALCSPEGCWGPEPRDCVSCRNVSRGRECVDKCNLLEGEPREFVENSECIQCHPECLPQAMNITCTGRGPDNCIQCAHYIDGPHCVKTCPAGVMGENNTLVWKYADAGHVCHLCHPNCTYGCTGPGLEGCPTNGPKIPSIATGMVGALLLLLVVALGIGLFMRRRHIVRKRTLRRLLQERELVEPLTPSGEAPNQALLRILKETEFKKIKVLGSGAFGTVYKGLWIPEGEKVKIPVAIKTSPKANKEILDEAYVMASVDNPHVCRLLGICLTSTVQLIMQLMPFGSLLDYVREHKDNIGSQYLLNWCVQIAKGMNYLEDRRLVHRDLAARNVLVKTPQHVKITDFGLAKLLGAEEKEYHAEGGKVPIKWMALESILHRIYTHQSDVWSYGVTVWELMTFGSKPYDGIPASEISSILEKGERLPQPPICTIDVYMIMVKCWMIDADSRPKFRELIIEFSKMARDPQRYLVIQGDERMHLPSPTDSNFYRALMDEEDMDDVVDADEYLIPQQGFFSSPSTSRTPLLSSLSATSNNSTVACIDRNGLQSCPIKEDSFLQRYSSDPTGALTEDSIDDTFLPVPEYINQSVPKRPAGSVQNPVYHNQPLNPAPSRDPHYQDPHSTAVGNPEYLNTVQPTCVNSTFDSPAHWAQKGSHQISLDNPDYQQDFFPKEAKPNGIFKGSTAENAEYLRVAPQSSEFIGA
Sequence of EGFR in Baf3-L858R-T790M-C797S (P00533 25-1210 T790M/C797S/L858R): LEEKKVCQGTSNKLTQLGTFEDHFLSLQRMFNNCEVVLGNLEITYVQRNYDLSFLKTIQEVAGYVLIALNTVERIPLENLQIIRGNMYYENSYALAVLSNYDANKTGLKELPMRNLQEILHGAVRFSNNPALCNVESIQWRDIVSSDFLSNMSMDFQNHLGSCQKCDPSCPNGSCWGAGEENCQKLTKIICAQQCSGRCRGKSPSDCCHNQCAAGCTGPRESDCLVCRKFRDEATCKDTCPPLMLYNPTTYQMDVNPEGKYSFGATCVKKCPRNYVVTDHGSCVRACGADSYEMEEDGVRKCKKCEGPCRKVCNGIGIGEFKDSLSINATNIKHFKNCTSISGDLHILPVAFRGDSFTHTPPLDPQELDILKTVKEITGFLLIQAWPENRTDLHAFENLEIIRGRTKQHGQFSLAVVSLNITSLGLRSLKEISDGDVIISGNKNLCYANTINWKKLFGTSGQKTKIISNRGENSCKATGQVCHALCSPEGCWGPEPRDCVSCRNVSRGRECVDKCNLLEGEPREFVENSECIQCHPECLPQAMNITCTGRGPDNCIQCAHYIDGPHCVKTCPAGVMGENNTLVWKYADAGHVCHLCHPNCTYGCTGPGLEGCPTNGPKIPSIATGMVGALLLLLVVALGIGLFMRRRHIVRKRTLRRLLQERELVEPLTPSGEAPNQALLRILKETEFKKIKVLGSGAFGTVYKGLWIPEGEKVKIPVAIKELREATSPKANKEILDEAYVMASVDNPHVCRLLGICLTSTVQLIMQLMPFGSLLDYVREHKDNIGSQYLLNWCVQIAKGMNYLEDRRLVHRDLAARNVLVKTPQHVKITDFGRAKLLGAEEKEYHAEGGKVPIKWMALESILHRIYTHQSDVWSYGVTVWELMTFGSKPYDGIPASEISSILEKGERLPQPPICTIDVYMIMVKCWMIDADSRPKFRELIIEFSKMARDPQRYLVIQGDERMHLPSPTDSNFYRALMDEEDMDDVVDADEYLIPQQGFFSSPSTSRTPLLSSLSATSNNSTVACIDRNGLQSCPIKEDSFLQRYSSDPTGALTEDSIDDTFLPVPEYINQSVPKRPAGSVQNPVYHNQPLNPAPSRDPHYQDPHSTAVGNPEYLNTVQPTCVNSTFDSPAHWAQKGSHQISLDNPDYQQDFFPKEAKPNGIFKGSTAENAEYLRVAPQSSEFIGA

Take `COc1cc(N2CCC(CN3CCN(c4ccc5c(c4)C(=O)N(C4CCC(=O)NC4=O)C5=O)CC3)CC2)c(-c2cnn(C)c2)cc1Nc1ncc(Br)c(Nc2ccc(C3CC3)cc2P(C)(C)=O)n1` (centres unmarked) [DZL-1, reference compound]: in data set [1] (setting [4]), the DC50 fell in the range of 10 to 100 nM. In data set [1] (setting [5]), the Dmax lay within 70 to 100%. For the same compound, the DC50 in data set [2] (setting [6]) was 10 to 100 nM. In data set [2] (setting [7]), the Dmax was in the range of 70 to 100%. In data set [3], this compound yielded an HL of 3.08 h, an AUC(0-inf) of 8460 ng·h/mL, an AUC(0-t) of 8070 ng·h/mL and a Cmax of 699 ng/mL. Moreover, in data set [3], the MRT last amounted to 6.11 h and the Tmax amounted to 4 h.

In the case of `CCc1cc(Nc2ncc(Cl)c(Nc3ccccc3P(C)(C)=O)n2)c(OC)cc1N1CCN(C(=O)CN2CCC(c3cc4c(cc3F)c(N3CCC(=O)NC3=O)nn4C)C(F)(F)C2)CC1` (centres unmarked) [TC-157], the DC50 in data set [1] (setting [4]) is less than 10 nM. For the same compound, in data set [1] (read-out: Baf3-DTC Dmax), the Dmax fell in the range of 70 to 100%. For the same compound, the DC50 in data set [2] (setting [6]) is less than 10 nM. In data set [2] (read-out: Baf3-LTC Dmax), the Dmax was in the range of 70 to 100%. For the same compound, in data set [3], the HL is listed as 2.66 h, the AUC(0-inf) is 5800 ng·h/mL, the AUC(0-t) was found to be 7530 ng·h/mL and the Cmax was 768 ng/mL. Moreover, in data set [3], the MRT last is 5.52 h and the Tmax is 3.33 h.

`CCc1cc(Nc2ncc(Cl)c(Nc3ccccc3P(C)(C)=O)n2)c(OC)cc1N1CCN(C(=O)CN2CCC(c3cc4c(cc3F)c(N3CCC(=O)NC3=O)nn4C)CC2)CC1` [TC-213]: in data set [1] (setting [4]), the DC50 lay within 10 to 100 nM. The Dmax in data set [1] (setting [5]) lay in the range of 70 to 100%. Besides, in data set [2] (setting [6]), the DC50 lay within 10 to 100 nM. Moreover, the Dmax in data set [2] (setting [7]) was 70 to 100%. In data set [3], this compound returned an HL of 3.48 h, an area under the curve AUC(0-inf) of 8150 ng·h/mL, an area under the curve AUC(0-t) of 8070 ng·h/mL and a Cmax of 742 ng/mL. Also, in data set [3], the MRT last was 6.22 h and the Tmax was found to be 4 h.

As to `CCc1cc(Nc2ncc(Cl)c(Nc3ccccc3C(=O)NC)n2)c(OC)cc1N1CCN(C(=O)CN2CCC(c3cc4c(cc3F)c(N3CCC(=O)NC3=O)nn4C)C(F)(F)C2)CC1` (centres unmarked) [TA-003], in data set [1] (read-out: Baf3-DTC DC50; Baf3-DTC, incubated 16 hours, HTRF total EGFR), the DC50 fell in the range of 10 to 100 nM. In data set [1] (read-out: Baf3-DTC Dmax), the Dmax is 70 to 100%. Also, the 50% degradation concentration (DC50) in data set [2] (read-out: Baf3-LTC DC50; Baf3-LTC, incubated 16 hours, HTRF total EGFR) lay in the range of 10 to 100 nM. In data set [2] (read-out: Baf3-LTC Dmax), the Dmax is 70 to 100%. For the same compound, in data set [3], the HL amounted to 3.22 h, the AUC(0-inf) came to 3800 ng·h/mL, the AUC(0-t) was 3770 ng·h/mL and the Cmax is 441 ng/mL. In data set [3], the MRT last worked out at 5.63 h and the Tmax worked out at 2 h.

Consider `CCc1cc(Nc2ncc(Cl)c(Nc3ccccc3P(C)(C)=O)n2)c(OC)cc1N1CC2(CCN(C(=O)CN3CCC(c4cc5c(cc4F)c(N4CCC(=O)NC4=O)nn5C)C(F)(F)C3)CC2)C1` (centres unmarked) [TA-023], for which, in data set [1] (setting [4]), the DC50 lay in the range of 10 to 100 nM. In data set [1] (setting [5]), the Dmax was 70 to 100%. Further, the DC50 in data set [2] (setting [6]) fell in the range of 10 to 100 nM. Moreover, the Dmax in data set [2] (setting [7]) is 70 to 100%. In data set [3], this compound yielded an HL of 3.99 h, an AUC(0-inf) of 3980 ng·h/mL, an AUC(0-t) of 3920 ng·h/mL and a Cmax of 580 ng/mL. For the same compound, in data set [3], the MRT last was found to be 5.1 h and the time of peak concentration (Tmax) was found to be 2 h.
